Conditions: in water

Row | solubility (mole fraction) (298.15 K) | solubility (mole fraction) (303.15 K) | solubility (mole fraction) (308.15 K) | solubility (mole fraction) (313.15 K) | solubility (mole fraction) (318.15 K) | solubility (mole fraction) (323.15 K) | SMILES
1 | 0.000103 | 0.000139 | 0.000375 | 0.000643 | 0.000922 | 0.00127 | CC(C)=CCC/C(C)=C/CO
2 | 0.000181 | 0.000332 | 0.000472 | 0.000592 | 0.000844 | 0.00111 | C=CC(C)(O)CCC=C(C)C (stereo not drawn)
3 | 4.8e-06 | 6.9e-06 | 9.9e-06 | 1.24e-05 | 1.51e-05 | 1.89e-05 | Cc1ccc(C(C)C)cc1
4 | 0.000228 | 0.00023 | 0.000254 | 0.000254 | 0.000286 | 0.000312 | C=CCc1ccc(O)c(OC)c1
5 | 0.000144 | 0.000155 | 0.000164 | 0.000169 | 0.00017 | 0.000172 | Cc1ccc(C(C)C)cc1O
6 | 0.000218 | 0.000187 | 0.000187 | 0.000208 | 0.000249 | 0.000308 | CC(C)=CCCC(C)CCO (stereo not drawn)

Row | SMILES | solubility (mole fraction) (298.15 K) | solubility (mole fraction) (303.15 K) | solubility (mole fraction) (308.15 K) | solubility (mole fraction) (313.15 K) | solubility (mole fraction) (318.15 K) | solubility (mole fraction) (323.15 K)
7 | Cc1ccccc1 | 0.000113 |  | 0.000118 | 0.00012 |  | 0.000126
8 | Cc1ccc(C)cc1 | 2.62e-05 |  | 3.07e-05 |  |  | 3.65e-05

Reference: BigSolDB 2.1
